pIC50: −log10 of the molar value. Read-outs that look alike come from different tables or passages of the source.
Legend:
[1] = molecular target: human aldose reductase (hALR2) (Homo sapiens, UniProt P15121); test: Inhibition of human aldose reductase (hALR2), methods similar to Butera et al.; format: biochemical; settings: for HALR1/hALR2: ratio of hALR1 IC50 to hALR2 IC50 (selectivity)
Description: Representative compounds of Formula Iwere tested for their potency, selectivity and efficacy as inhibitors of human aldose reductase.
(§1) Since high potency of test compounds as inhibitors of aldose reductase is desirable, low hALR2 IC50 values are sought. On the other hand, high potency of test compounds as inhibitors of aldehyde reductase is undesirable, and high ALR1 IC50s values are sought. Accordingly, the hALR1/hALR2 ratio is used to determine the selectivity of the test compounds. The importance of this selectivity is Described in Kotani, et al., J. Med. Chem. 40: 684, 1997.

[2] = molecular target: T1, human aldehyde reductase (hALR1) (Homo sapiens, UniProt P14550); test: Inhibition of human aldehyde reductase (hALR1), methods of Ishii et al.; format: biochemical
T1 sequence (P14550 1-325): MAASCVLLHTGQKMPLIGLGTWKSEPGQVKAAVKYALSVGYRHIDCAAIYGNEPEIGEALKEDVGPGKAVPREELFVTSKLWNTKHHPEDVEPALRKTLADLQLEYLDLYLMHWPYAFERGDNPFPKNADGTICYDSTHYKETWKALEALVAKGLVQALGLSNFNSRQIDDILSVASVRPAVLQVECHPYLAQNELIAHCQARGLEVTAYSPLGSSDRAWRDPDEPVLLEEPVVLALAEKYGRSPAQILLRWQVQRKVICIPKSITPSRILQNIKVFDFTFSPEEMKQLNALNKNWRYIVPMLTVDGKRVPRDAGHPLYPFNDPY
Description: In a second assay, a number of the same compounds were tested for their ability to inhibit aldehyde reductase (hALR1), a structurally related enzyme.
as §1, with “compounds.” for “compounds. The importance of this selectivity is Described in Kotani, et al., J. Med. Chem. 40: 684, 1997.”

| Compound | pIC50 [1] | further results |
| --- | --- | --- |
| O=C(O)Cn1cc(Cc2nc3c(F)c(F)cc(F)c3s2)c2cc(-c3ccccc3)ccc21 [Example 15, 5-phenyl-3-(4,5,7-trifluorobenzothiazol-2-yl)methyl-indole-N-acetic acid] | 7.28 |  |
| O=C(O)Cn1c(-c2ccccc2)c(Cc2nc3c(F)c(F)cc(F)c3s2)c2ccccc21 [Example 14, 2-phenyl-3-(4,5,7-trifluorobenzothiazol-2-yl)methyl-indole-N-acetic Acid] | 7.00 |  |
| O=C(O)Cn1cc(Cc2nc3c(F)c(F)cc(F)c3s2)c2cccc(Cl)c21 [Example 22, 7-chloro-3-(4,5,7-trifluorobenzothiazol-2-yl)methyl-indole-N-acetic Acid] | 8.04 |  |
| Cc1ccc2c(c1)c(Cc1nc3c(F)c(F)cc(F)c3s1)cn2CC(=O)O [Example 4, 5-methyl-3-(4,5,7-trifluorobenzothiazol-2-yl)methyl-indole-N-acetic Acid] | 8.10 |  |
| Cc1cccc2c(Cc3nc4c(F)c(F)cc(F)c4s3)cn(CC(=O)O)c12 [Example 5, 7-methyl-3-(4,5,7-trifluorobenzothiazol-2-yl)methyl-indole-N-acetic Acid] | 8.22 |  |
| Cc1c(Cc2nc3c(F)c(F)cc(F)c3s2)c2ccccc2n1CC(=O)O [Example 1, 2-methyl-3-(4,5,7-trifluorobenzothiazol-2-yl)methyl-indole-N-acetic Acid] | 8.10 |  |
| O=C(O)Cn1cc(Cc2nc3cc(C(F)(F)F)ccc3s2)c2ccc(Br)cc21 [Example 27, 6-Bromo-3-(5-trifluoromethylbenzothiazol-2-yl)methyl-indole-N-acetic acid] | 7.28 | pIC50 [2]: > 5.30; HALR1/hALR2 [1]: <96 |
| O=C(O)Cn1cc(Cc2nc3c(F)c(F)cc(F)c3s2)c2ccc(-c3ccccc3)cc21 [Example 16, 6-phenyl-3-(4,5,7-trifluorobenzothiazol-2-yl)methyl-indole-N-acetic Acid] | 7.60 | pIC50 [2]: 5.21; HALR1/hALR2 [1]: 248 |
| O=C(O)Cn1cc(Cc2nc3cc(F)ccc3s2)c2ccccc21 [Example 23, 3-[5-Fluorbenzothiazole-2-yl]methyl-indole-N-acetic Acid] | 8.05 | pIC50 [2]: 5.19; HALR1/hALR2 [1]: 720 |
| O=C(O)CCn1cc(Cc2nc3c(F)c(F)cc(F)c3s2)c2ccccc21 [Example 26, 3-(4-5.7-trifluorobenzothiazol-2-yl)methyl-indole-N-3-propionic Acid] | 7.77 |  |
| CC(C(=O)O)n1cc(Cc2nc3c(F)c(F)cc(F)c3s2)c2ccccc21 (stereo not drawn) [Example 25, 3-(4.5,7-trifluorobenzothiazol-2-yl)methyl-indole-N-2-propionic Acid] | 6.80 |  |
| O=C(O)Cn1cc(Cc2nc3ccc(Cl)cc3s2)c2ccccc21 [Example 32, 3-(6-chlorobenzothiazol-2-yl) methyl-indole-N-acetic Acid] | 6.18 |  |
| COc1ccc2c(Cc3nc4c(F)c(F)cc(F)c4s3)cn(CC(=O)O)c2c1 [Example 28, 6-Methoxy-3-(4,5,7-trifluorobenzothiazol-2-yl)methyl-indole-N-acetic acid] | 8.30 |  |
| O=C(O)Cn1cc(Cc2nc3c(F)c(F)cc(F)c3s2)c2cc(Oc3ccccc3)ccc21 [Example 19, 5-phenoxy-3-(4,5,7-trifluorobenzothiazol-2-yl)methyl-indole-N-acetic Acid] | 7.52 |  |
| 3-[6-Fluorbenzothiazole-2-yl]methyl-indole-N-acetic Acid [Example 24] |  | HALR1/hALR2 [1]: 4 |
| O=C(O)Cn1cc(Cc2nc3c(F)c(F)cc(F)c3s2)c2cc(F)ccc21 [Example 9, 5-fluoro-3-(4,5,7-trifluorobenzothiazol-2-yl)methyl-indole-N-acetic Acid] | 7.96 |  |

| Compound | pIC50 [1] | further results |
| --- | --- | --- |
| O=C(O)Cn1cc(Cc2nc3c(F)c(F)cc(F)c3s2)c2cccc(F)c21 [Example 20, 7-fluoro-3-(4,5,7-trifluorobenzothiazol-2-yl)methyl-indole-N-acetic Acid] | 8.15 |  |
| O=C(O)Cn1cc(Cc2nc3c(F)c(F)cc(F)c3s2)c2cc(OCc3ccccc3)ccc21 [Example 7, 5-benzyloxy-3-(4,5,7-trifluorobenzothiazol-2-yl)methyl-indole-N-acetic Acid] | 7.92 |  |
| O=C(O)Cn1cc(Cc2cccc([N+](=O)[O-])c2)c2ccccc21 [Example 13, 3-(3-nitrophenyl)methyl-indole-N-acetic Acid] | 7.14 | pIC50 ([2]; read-out: HALR1 (IC50)): 4.89; HALR1/hALR2 [1]: 178 |
| O=C(O)Cn1cc(Cc2nc3c(F)c(F)cc(F)c3s2)c2ccc(F)cc21 [Example 8, 6-fluoro-3-(4,5,7-trifluorobenzothiazol-2-yl)methyl-indole-N-acetic Acid] | 8.15 |  |
| O=C(O)Cn1cc(Cc2nc3cc(C(F)(F)F)ccc3s2)c2ccccc21 [Example 11, 3-(5-trifluoromethylbenzothiazol-2-yl)methyl-indole-N-acetic Acid] | 7.00 |  |
| O=C(O)Cn1cc(Cc2nc3c(F)c(F)cc(F)c3s2)c2cc(N3CCOCC3)ccc21 [Example 17, 5-morpholino-3-(4,5.7-trifluorobenzothiazol-2-yl)methyl-indole-N-acetic Acid] | 8.10 |  |
| O=C(O)Cn1cc(Cc2nc3c(F)c(F)cc(F)c3s2)c2cc(Br)ccc21 [Example 31, 5-Bromo-3-(4,5.7-trifluorobenzothiazol-2-yl) methyl-indole-N-acetic acid] | 7.89 | pIC50 [2]: 5.01; HALR1/hALR2 [1]: 746 |
| Cc1ccc2c(Cc3nc4c(F)c(F)cc(F)c4s3)cn(CC(=O)O)c2c1 [Example 10, 6-methyl-3-(4,5,7-trifluorobenzothiazol-2-yl)methyl-indole-N-acetic Acid] | 8.30 |  |
| O=C(O)Cn1cc(Cc2nc3c(F)c(F)cc(F)c3s2)c2cccc(Br)c21 [Example 21, 7-bromo-3-(4,5,7-trifluorobenzothiazol-2-yl)methyl-indole-N-acetic Acid] | 7.85 |  |
| O=C(O)Cn1cc(Cc2nc3c(F)c(F)cc(F)c3s2)c2c(Cl)cccc21 [Example 29, 4-Chloro-3-(4,5,7-trifluorobenzothiazol-2yl) methyl-indole-N-acetic Acid] | 7.96 |  |
| Cc1ccc2c(c1)c(Cc1nc3cc(C(F)(F)F)ccc3s1)cn2CC(=O)O [Example 12, 5-Methyl-3-(5-Trifluoromethylbenzothiazol-2-yl)methyl-indole-N-acetic Acid] | 6.99 | pIC50 [2]: 5.00; HALR1/hALR2 [1]: 98 |
| COc1ccc2c(c1)c(Cc1nc3c(F)c(F)cc(F)c3s1)cn2CC(=O)O [Example 30, 5-Methoxy-3-(4,5,7-trifluorobenzothiazol-2-yl) methyl-indole-N-acetic Acid] | 8.11 |  |
| O=C(O)Cn1cc(Cc2nc3c(F)c(F)cc(F)c3s2)c2ccc(N3CCOCC3)cc21 [Example 18, 6-morpholino-3-(4,5,7-trifluorobenzothiazol-2-yl) methyl-indole-N-acetic Acid] |  | pIC50 ([2]; read-out: HALR1 (IC50)): < 4.00; HALR1/hALR2 [1]: >6,700; pIC50 ([1]; read-out: hALR2 (IC50)): 7.82 |
| O=C(O)Cn1cc(Cc2nc3c(F)c(F)cc(F)c3s2)c2cc(Cl)ccc21 [Example 2, 5-chloro-3-(4,5,7-Trifluorobenzothiazol-2-yl)methyl-indole-N-acetic Acid] | 8.00 |  |
| O=C(O)Cn1cc(Cc2nc3c(F)c(F)cc(F)c3s2)c2ccc(Cl)cc21 [Example 6, 6-chloro-3-(4,5,7-trifluorobenzothiazol-2-yl)methyl-indole-N-acetic Acid] | 8.10 |  |
